Assay results taken from US6977260B2, “Piperidinyl prostaglandin E analogs” (Allergan, Inc., priority 2004, dated 2005).

How the values were obtained:
Type in all cases: cell-based
Conditions in all cases: HEK-293-EBNA stable transfectants
hTP = molecular target: T1, hTP (Homo sapiens, UniProt P21731); experiment: Functional data, human recombinant TP receptor stable transfectants
T1 construct: expressed in transfected cells; host or cells: HEK-293-EBNA
T1 sequence (P21731 1-343): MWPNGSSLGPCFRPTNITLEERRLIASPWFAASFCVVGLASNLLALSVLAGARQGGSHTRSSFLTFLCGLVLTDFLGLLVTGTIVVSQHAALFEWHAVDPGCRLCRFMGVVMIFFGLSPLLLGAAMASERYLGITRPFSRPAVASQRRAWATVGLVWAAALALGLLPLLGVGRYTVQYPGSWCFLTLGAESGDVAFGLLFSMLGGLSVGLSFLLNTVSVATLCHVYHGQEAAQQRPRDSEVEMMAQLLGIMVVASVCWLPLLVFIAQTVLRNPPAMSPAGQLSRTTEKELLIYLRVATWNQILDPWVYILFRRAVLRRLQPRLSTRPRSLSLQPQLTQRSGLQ
Protocol: (§1) Human Recombinant EP1, EP2, EP3, EP4, FP, TP, IP and DP Receptors: Stable Transfectants.
(§2) Plasmids encoding the human EP1, EP2, EP3, EP4, FP, TP, IP and DP receptors were prepared by cloning the respective coding sequences into the eukaryotic expression vector pCEP4 (Invitrogen). The pCEP4 vector contains an Epstein Barr virus (EBV) origin of replication, which permits episomal replication in primate cell lines expressing EBV nuclear antigen (EBNA-1). It also contains a hygromycin resistance gene that is used for eukaryotic selection. The cells employed for stable transfection were human embryonic kidney cells (HEK-293) that were transfected with and express the EBNA-1 protein. These HEK-293-EBNA cells (Invitrogen) were grown in medium containing Geneticin (G418) to maintain expression of the EBNA-1 protein. HEK-293 cells were grown in DMEM with 10% fetal bovine serum (FBS), 250 μg ml^−1 G418 (Life Technologies) and 200 μg ml^−1 gentamicin or penicillin/streptomycin.
(§3) For transfection, the cells were grown to 50-60% confluency on 10 cm plates. The plasmid pCEP4 incorporating cDNA inserts for the respective human prostanoid receptor (20 μg) was added to 500 μl of 250 mM CaCl2. HEPES buffered saline×2 (2×HBS, 280 mM NaCl, 20 mM HEPES acid, 1.5 mM Na2 HPO4, pH 7.05-7.12) was then added dropwise to a total of 500 μl, with continuous-vortexing at room temperature. After 30 min, 9 ml DMEM were added to the mixture. The DNA/DMEM/calcium phosphate mixture was then added to the cells, which had been previously rinsed with 10 ml PBS. The cells were then incubated for 5 hr at 37° C. in humidified 95% air/5% CO2. The calcium phosphate solution was then removed and the cells were treated with 10% glycerol in DMEM for 2 min. The glycerol solution was then replaced by DMEM with 10% FBS. The cells were incubated overnight and the medium was replaced by DMEM/10% FBS containing 250 μg ml^−1 G418 and penicillin/streptomycin. The following day hygromycin B was added to a final concentration of 200 μg ml^−1.
(§4) Ten days after transfection, hygromycin B resistant clones were individually selected and transferred to a separate well on a 24 well plate. At confluence each clone was transferred to one well of a 6 well plate, and then expanded in a 10 cm dish. Cells were maintained under continuous hygromycin selection until use.

hEP3A = molecular target: T2, hEP3A (Homo sapiens, UniProt P43115); experiment: Functional data, human recombinant EP3 receptor stable transfectants
T2 construct: expressed in transfected cells; host or cells: HEK-293-EBNA
T2 sequence (P43115 1-390): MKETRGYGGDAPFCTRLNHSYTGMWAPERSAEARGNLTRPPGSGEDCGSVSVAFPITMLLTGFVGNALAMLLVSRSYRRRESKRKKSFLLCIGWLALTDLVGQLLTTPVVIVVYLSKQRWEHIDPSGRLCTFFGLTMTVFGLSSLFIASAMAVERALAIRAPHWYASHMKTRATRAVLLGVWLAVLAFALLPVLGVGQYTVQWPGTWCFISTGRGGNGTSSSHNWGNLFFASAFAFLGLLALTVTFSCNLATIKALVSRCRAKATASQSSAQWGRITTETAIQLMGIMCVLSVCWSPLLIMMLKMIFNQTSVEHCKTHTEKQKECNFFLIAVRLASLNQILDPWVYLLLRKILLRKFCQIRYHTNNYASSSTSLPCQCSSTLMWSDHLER
Protocol: as §1, §2
(§5) For transfection, the cells were grown to 50-60% confluency on 10 cm plates. The plasmid pCEP4 incorporating cDNA inserts for the respective human prostanoid receptor (20 μg) was added to 500 μl of 250 mM CaCl2. HEPES buffered saline×2 (2×HBS, 280 mM NaCl, 20 mM HEPES acid, 1.5 mM Na2 HPO4, pH 7.05-7.12) was then added dropwise to a total of 500 μl, with continuous-vortexing at room temperature. […]

hEP4 = molecular target: T3, hEP4 (Homo sapiens, UniProt P35408); experiment: Functional data, human recombinant EP4 receptor stable transfectants
T3 construct: expressed in transfected cells; host or cells: HEK-293-EBNA
T3 sequence (P35408 whole entry): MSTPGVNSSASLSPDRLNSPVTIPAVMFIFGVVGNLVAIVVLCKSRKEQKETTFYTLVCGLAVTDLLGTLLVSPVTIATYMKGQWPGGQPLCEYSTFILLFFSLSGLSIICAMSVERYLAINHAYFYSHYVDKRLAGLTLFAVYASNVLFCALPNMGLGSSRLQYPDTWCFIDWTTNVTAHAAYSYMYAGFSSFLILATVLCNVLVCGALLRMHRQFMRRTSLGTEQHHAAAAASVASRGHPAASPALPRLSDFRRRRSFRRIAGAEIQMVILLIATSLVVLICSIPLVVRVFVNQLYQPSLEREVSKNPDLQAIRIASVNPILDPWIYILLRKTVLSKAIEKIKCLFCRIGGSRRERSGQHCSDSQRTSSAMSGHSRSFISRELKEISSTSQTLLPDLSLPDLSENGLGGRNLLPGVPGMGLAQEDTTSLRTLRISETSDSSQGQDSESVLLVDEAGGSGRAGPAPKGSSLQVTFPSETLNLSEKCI
Protocol: as §1, §2, §3, §4

hEP1 = molecular target: T4, hEP1 (Homo sapiens, UniProt P34995); experiment: Functional data, human recombinant EP1 receptor stable transfectants
T4 construct: expressed in transfected cells; host or cells: HEK-293-EBNA
T4 sequence (P34995 1-402): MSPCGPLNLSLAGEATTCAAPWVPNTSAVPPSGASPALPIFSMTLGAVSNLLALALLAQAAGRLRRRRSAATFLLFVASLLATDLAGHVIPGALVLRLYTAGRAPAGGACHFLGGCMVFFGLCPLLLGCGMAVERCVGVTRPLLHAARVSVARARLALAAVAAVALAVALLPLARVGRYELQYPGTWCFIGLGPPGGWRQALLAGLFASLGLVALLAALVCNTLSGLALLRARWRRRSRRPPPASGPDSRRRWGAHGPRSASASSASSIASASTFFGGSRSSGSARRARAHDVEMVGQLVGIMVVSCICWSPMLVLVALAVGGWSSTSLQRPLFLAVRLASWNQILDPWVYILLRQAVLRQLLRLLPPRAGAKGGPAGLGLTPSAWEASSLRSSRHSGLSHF
Protocol: as §1, §2, §5

hEP2 = molecular target: T5, hEP2 (Homo sapiens, UniProt P43116); experiment: Functional data, human recombinant EP2 receptor stable transfectants
T5 construct: expressed in transfected cells; host or cells: HEK-293-EBNA
T5 sequence (P43116 whole entry): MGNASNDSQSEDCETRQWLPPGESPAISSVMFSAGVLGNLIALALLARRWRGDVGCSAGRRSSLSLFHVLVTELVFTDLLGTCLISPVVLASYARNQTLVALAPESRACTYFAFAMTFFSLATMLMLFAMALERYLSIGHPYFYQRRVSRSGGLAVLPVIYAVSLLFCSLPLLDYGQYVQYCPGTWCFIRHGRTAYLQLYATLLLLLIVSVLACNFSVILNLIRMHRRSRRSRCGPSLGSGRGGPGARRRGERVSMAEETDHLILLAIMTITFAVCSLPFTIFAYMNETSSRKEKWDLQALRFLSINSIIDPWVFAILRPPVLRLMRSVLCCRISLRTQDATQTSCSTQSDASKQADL
Protocol: as §1, §2, §5

SMILES | EC50 (hTP) | EC50 (hEP4) | also measured
COC(=O)COCCCCN1C(=O)CCC[C@@H]1/C=C/C(=O)Cc1ccccc1 [Example 1, {4-[(R)-2-Oxo-6-((E)-3-oxophenyl-but-1-enyl)-piperidin-1-yl]-butoxy}-Acetic acid methyl ester] | > 10000 nM |  | 
O=C(O)COCCCCN1C(=O)CCC[C@@H]1/C=C/C(=O)Cc1ccccc1 [Example 2, {4-[(R)-2-Oxo-6-((E)-3-oxo-4-phenyl-but-1-enyl)-piperidin-1-yl]-butoxy}-acetic acid] | 2260 nM | 300 nM | EC50 (hEP3A): > 10000 nM
COC(=O)COCCCCN1C(=O)CCC[C@@H]1/C=C/C(O)Cc1ccccc1 (stereo partly drawn) [Example 3, {4-[(R)-2-((E)-3-Hydroxy-4-phenyl-but-1-enyl)-6-oxo-piperidin-1-yl]-butoxy}-acetic acid methyl ester] |  | 1100 nM | 
O=C(O)COCCCCN1C(=O)CCC[C@@H]1/C=C/C(O)Cc1ccccc1 (stereo partly drawn) [Example 4, {4-[(R)-2-((E)-3-Hydroxy-4-phenyl-but-1-enyl)-6-oxo-piperidin-1-yl]-butoxy}-acetic acid] |  | 145 nM | 
COC(=O)COCCCCN1C(=O)CCC[C@@H]1CCC(O)Cc1ccccc1 (stereo partly drawn) [Example 5, {4-[(R)-2-(3-Hydroxy-4-phenyl-butyl)-6-oxo-piperidin-1-yl]-butoxy}-acetic acid methyl ester] |  | > 10000 nM | EC50 (hEP3A): > 10000 nM
O=C(O)COCCCCN1C(=O)CCC[C@@H]1CCC(O)Cc1ccccc1 (stereo partly drawn) [Example 6, {4-[(R)-2-(3-Hydroxy-4-phenyl-butyl)-6-oxo-piperidin-1-yl]-butoxy}-acetic acid] |  | > 10000 nM | 
O=C(O)COC/C=C\CN1C(=O)CCC[C@@H]1/C=C/C(=O)Cc1ccccc1 [Example 8, {(Z)-4-[(R)-2-Oxo-6-((E)-3-oxo-4-phenyl-but-1-enyl)-piperidin-1-yl]-but-2-enyloxy}-acetic acid] | > 10000 nM | 2560 nM | 
COC(=O)COCCCCN1C(=O)CCC[C@@H]1CCC(=O)Cc1ccccc1 [Example 9, {4-[(R)-2-Oxo-6-(3-oxo-4-phenyl-butyl)-piperidin-1-yl]-butoxy}-acetic acid methyl ester] |  | 7540 nM | 
O=C(O)COCCCCN1C(=O)CCC[C@@H]1CCC(=O)Cc1ccccc1 [Example 10, {4-[(R)-2-Oxo-6-(3-oxo-4-phenyl-butyl)-piperidin-1-yl]-butoxy}-acetic acid] | > 10000 nM | 1970 nM | 
O=C(O)COC/C=C\CN1C(=O)CCC[C@@H]1/C=C/C(O)Cc1ccccc1 (stereo partly drawn) [Example 12, {(Z)-4-[(R)-2-((E)-3-Hydroxy-4-phenyl-but-1-enyl)-6-oxo-piperidin-1-yl]-but-2-enyloxy}-acetic acid] |  | > 10000 nM | 
O=C(O)COC/C=C\CN1C(=O)CCC[C@@H]1CCC(=O)Cc1ccccc1 [Example 14, {(Z)-4[(R)-2-Oxo-6-(3-oxo-4-phenyl-butyl)-piperidin-1-yl]-but-2-enyloxy}-acetic acid] | > 10000 nM | > 10000 nM | 
O=C(O)COC/C=C\CN1C(=O)CCC[C@@H]1CCC(O)Cc1ccccc1 (stereo partly drawn) [Example 16, {(Z)-4-[(R)-2-(3-Hydroxy-4-phenyl-butyl)-6-oxo-piperidin-1-yl]-but-2-enyloxy}-acetic acid] |  | > 10000 nM | 
O=C(O)COCCCCN1C(=O)CCC[C@@H]1/C=C/C(O)Cc1cccc(Cl)c1 (stereo partly drawn) [Example 17, (4-{(R)-2-[(E)4(3-Chlorophenyl)-3-hydroxy-but-1-enyl]-6-oxo-piperidin-1-yl}-butoxy)-acetic acid] |  |  | EC50 (hEP1): > 10000 nM; EC50 (hEP2): > 10000 nM
NC(=O)COCCCCN1C(=O)CCC[C@@H]1/C=C/C(O)Cc1cccc(Cl)c1 (stereo partly drawn) [Example 18, 2-(4-{(R)-2-[(E)-4-(3-Chlorophenyl)-3-hydroxy-but-1 enyl]-6-oxo-piperidin-1-yl}-butoxy)-acetamide] | > 10000 nM |  | 
